# Measured values as given in patent US8507690B2, “Thiazole derivative and use thereof as VAP-1 inhibitor” (R-Tech Ueno, Ltd., priority 2008, dated 2013).
# Counter-ions that a name gives are not always drawn.
# What was measured:
# [1] = biological target: T1, human VAP-1 enzyme (SSAO) (Homo sapiens, UniProt Q16853); assay: Enzyme activity inhibitory effect on human VAP-1 enzyme (SSAO), radiochemical-enzyme assay with 14C-benzylamine; type: biochemical; details: human VAP-1 (SSAO) cell extract, 14C-benzylamine 1×10^−5 mol/l, 37° C. 2 hours
# T1 construct: made in house; cell extract used
# T1 sequence (Q16853 1-763): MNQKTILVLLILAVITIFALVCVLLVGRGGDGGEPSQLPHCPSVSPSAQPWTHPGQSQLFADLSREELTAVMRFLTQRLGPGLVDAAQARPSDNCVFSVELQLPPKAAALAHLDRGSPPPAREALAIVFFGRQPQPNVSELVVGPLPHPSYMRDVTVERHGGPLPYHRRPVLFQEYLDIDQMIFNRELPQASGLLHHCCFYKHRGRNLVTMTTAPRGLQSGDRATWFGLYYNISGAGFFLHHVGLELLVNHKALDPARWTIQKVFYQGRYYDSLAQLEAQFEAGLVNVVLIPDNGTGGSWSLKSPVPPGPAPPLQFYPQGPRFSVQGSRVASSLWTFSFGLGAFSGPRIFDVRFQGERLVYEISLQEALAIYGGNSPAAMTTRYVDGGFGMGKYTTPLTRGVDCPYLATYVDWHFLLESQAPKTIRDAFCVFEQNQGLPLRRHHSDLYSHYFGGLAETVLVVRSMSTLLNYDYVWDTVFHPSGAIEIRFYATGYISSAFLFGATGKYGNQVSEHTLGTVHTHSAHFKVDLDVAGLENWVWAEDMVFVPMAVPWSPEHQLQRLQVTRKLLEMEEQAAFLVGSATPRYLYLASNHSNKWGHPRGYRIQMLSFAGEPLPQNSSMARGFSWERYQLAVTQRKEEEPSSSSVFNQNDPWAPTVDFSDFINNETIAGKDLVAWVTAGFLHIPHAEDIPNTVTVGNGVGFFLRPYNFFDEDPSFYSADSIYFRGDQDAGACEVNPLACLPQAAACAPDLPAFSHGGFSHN
# Method: (§1) The compounds of the present invention obtained in Production Examples were examined for the enzyme activity inhibitory effect on human and rat VAP-1 enzyme (SSAO) by the following method.
# (§2) The VAP-1 enzyme (SSAO) activity in both human and rat was measured by a radiochemical-enzyme assay using ^14C-benzylamine as an artificial substrate. Human or rat VAP-1 was cloned from the cDNA library and expressed in a cell. The cell extract was preincubated with a test compound solution (final concentration 1×10^−7-1×10^−11 mol/l) at room temperature for 20 minutes. Then, ^14C-benzylamine (final concentration 1×10^−5 mol/l) was added, and the mixture was incubated at a final volume of 200 μl at 37° C. for 2 hours. The enzyme reaction was stopped by addition of 2 mol/l (200 μl) citric acid. The oxidation product was extracted with 1 ml toluene/ethyl acetate (1:1), and the radioactivity thereof was measured by a liquid scintillation counter.
# rat VAP-1 enzyme (SSAO) = biological target: T2, rat VAP-1 enzyme (SSAO) (Rattus norvegicus, UniProt O08590); assay: Enzyme activity inhibitory effect on rat VAP-1 enzyme (SSAO), radiochemical-enzyme assay with 14C-benzylamine; type: biochemical; details: rat VAP-1 (SSAO) cell extract, 14C-benzylamine 1×10^−5 mol/l, 37° C. 2 hours
# T2 construct: made in house; cell extract used
# T2 sequence (O08590 1-763): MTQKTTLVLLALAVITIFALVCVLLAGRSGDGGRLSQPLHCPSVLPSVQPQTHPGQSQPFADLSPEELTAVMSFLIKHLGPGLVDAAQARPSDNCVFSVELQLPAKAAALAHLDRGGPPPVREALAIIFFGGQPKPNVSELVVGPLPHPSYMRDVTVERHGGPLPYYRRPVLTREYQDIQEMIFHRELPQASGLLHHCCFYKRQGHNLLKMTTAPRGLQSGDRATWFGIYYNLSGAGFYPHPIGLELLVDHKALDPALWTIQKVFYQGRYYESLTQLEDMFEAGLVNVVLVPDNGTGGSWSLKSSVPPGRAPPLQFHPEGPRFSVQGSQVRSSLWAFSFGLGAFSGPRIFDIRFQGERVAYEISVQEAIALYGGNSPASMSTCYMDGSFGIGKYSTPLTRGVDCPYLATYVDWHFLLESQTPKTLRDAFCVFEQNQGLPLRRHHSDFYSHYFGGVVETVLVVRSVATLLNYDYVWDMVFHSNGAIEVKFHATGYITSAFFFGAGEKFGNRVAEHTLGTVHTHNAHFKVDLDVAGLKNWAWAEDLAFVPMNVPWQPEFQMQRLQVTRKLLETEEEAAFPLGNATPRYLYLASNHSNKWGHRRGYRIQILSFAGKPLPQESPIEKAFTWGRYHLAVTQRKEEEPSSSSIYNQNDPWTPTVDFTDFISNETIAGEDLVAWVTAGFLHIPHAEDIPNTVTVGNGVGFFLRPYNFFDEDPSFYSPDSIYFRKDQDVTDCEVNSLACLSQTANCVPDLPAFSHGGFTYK
# Method: as §1, §2
SMILES,melting point [°C],IC50 [1] [nM],IC50 (rat VAP-1 enzyme (SSAO)) [nM]
"CC(=O)Nc1nc(C(=O)Nc2ccc(CCOC(=O)NN)cc2)cs1.Cl [Production Example 9, 2-[4-({[2-(acetylamino)-1,3-thiazol-4-yl]carbonyl}amino)phenyl]ethyl hydrazinecarboxylate hydrochloride]",225 to 233,17.1,1
"CC(=O)Nc1nc(CCc2cc(C)c(CCCOC(=O)NN)s2)cs1.Cl [Production Example 17, 3-(5-{2-[2-(acetylamino)-1,3-thiazol-4-yl]ethyl}-3-methylthiophen-2-yl)propyl hydrazinecarboxylate hydrochloride]",111 to 115,68.7,5
CC(=O)Nc1nc(C(=O)Nc2ccc(CNC(=O)NN)cc2)cs1.Cl [Production Example 24],231 to 234,,
"CC(=O)Nc1nc(CCc2ccc(CCOC(=O)NN)cc2)cs1.Cl [Production Example 3, 2-(4-{2-[2-(acetylamino)-1,3-thiazol-4-yl]ethyl}phenyl)ethyl hydrazinecarboxylate hydrochloride]",172 to 174,11.7,2.3
"CC(=O)Nc1nc(CCc2ccc(CNC(=O)NN)c(F)c2)cs1.Cl [Production Example 20, N-(4-{2-[2-(acetylamino)-1,3-thiazol-4-yl]ethyl}-2-fluorobenzyl)hydrazinecarboxamide hydrochloride]",172 to 175,2.8,1.6
"CC(=O)Nc1nc(CCc2cc(CCCOC(=O)NN)cs2)cs1.Cl [Production Example 16, 3-(5-{2-[2-(acetylamino)-1,3-thiazol-4-yl]ethyl}thiophen-3-yl)propyl hydrazinecarboxylate hydrochloride]",98 to 102,16.7,10.5
"CC(=O)Nc1nc(CCc2ccc(CCNC(=O)NN)s2)cs1.Cl [Production Example 30, N-[2-(5-{2-[2-(acetylamino)-1,3-thiazol-4-yl]ethyl}thiophen-2-yl)ethyl]hydrazinecarboxamide hydrochloride]",178 to 181,18.8,3.8
"CC(=O)Nc1nc(CCc2ccc(OC(=O)NN)cc2)cs1.Cl [Production Example 1, 4-{2-[2-(acetylamino)-1,3-thiazol-4-yl]ethyl}phenyl hydrazinecarboxylate hydrochloride]",167 to 169,2.5,0.2
"CC(=O)Nc1nc(CCc2cccc(CNC(=O)NN)c2)cs1.Cl [Production Example 27, N-(3-{2-[2-(acetylamino)-1,3-thiazol-4-yl]ethyl}benzyl)hydrazinecarboxamide hydrochloride]",123 to 127,2.1,0.6
"CC(=O)Nc1nc(CCc2ccc(CCNC(=O)NN)cc2)cs1.Cl [Production Example 19, N-[2-(4-{2-[2-(acetylamino)-1,3-thiazol-4-yl]ethyl}phenyl)ethyl]hydrazinecarboxamide hydrochloride]",171 to 173,12.2,2.3
"CC(=O)Nc1nc(CCc2cccc(CCNC(=O)NN)c2)cs1.Cl [Production Example 28, N-[2-(3-{2-[2-(acetylamino)-1,3-thiazol-4-yl]ethyl}phenyl)ethyl]hydrazinecarboxamide hydrochloride]",176 to 179,44.3,5.6
"CC(=O)Nc1nc(CCc2cc(CCCNC(=O)NN)cs2)cs1 (as salt: hydrochloride) [Production Example 32, N-[3-(5-{2-[2-(acetylamino)-1,3-thiazol-4-yl]ethyl}thiophen-3-yl)propyl]hydrazinecarboxamide hydrochloride]",111 to 115,,
CC(=O)Nc1nc(CCc2ccc(CNC(=O)NN)cc2F)cs1 (as salt: hydrochloride),165 to 169,,
"CC(=O)Nc1nc(CCc2ccc(COC(=O)NN)s2)cs1 [Production Example 13, {5-[2-(2-acetylamino-1,3-thiazol-4-yl)ethyl]thiophen-2-yl}methyl hydrazinecarboxylate hydrochloride]",,3.4,0.7
"CC(=O)Nc1nc(CCc2ccc(CCOC(=O)NN)s2)cs1 [Production Example 14, 2-(5-{2-[2-(acetylamino)-1,3-thiazol-4-yl]ethyl}thiophen-2-yl)ethyl hydrazinecarboxylate hydrochloride]",,5.1,5.3
"CC(=O)Nc1nc(CCc2ccc(CSC(=O)NN)s2)cs1 (as salt: hydrochloride) [Production Example 36, S-[(5-{2-[2-(acetylamino)-1,3-thiazol-4-yl]ethyl}thiophen-2-yl)methyl]hydrazinecarbothioate hydrochloride]",147 to 153,,
"CC(=O)Nc1nc(COc2ccc(CCNC(=O)NN)cc2)cs1 [Production Example 25, N-[2-(4-{[2-(acetylamino)-1,3-thiazol-4-yl]methoxy}phenyl)ethyl]hydrazinecarboxamide trifluoroacetate]",,48.5,1.5
"CC(=O)Nc1nc(CCc2ccc(CNC(=O)NN)c(F)c2F)cs1 [Production Example 22, N-(4-{2-[2-(acetylamino)-1,3-thiazol-4-yl]ethyl}-2,3-difluorobenzyl)hydrazinecarboxamide hydrochloride]",,5.5,2.2
"CC(=O)Nc1nc(CNc2ccc(CNC(=O)NN)cc2)cs1 [Production Example 23, N-[4-({[2-(acetylamino)-1,3-thiazol-4-yl]methyl}amino)benzyl]hydrazinecarboxamide dihydrochloride]",,16.8,8.4
"CC(=O)Nc1nc(C(=O)Nc2ccc(CNC(=O)NN)cc2)cs1.Cl [Production Example 24, 2-(acetylamino)-N-(4-{[hydrazinocarbonyl)amino]methyl}phenyl)-1,3-thiazole-4-carboxamide hydrochloride]",,7.3,1
CC(=O)Nc1nc(CCc2cccc(OC(=O)NN)c2)cs1 (as salt: hydrochloride),158 to 162,,
"CC(=O)Nc1nc(CCc2ccc(COC(=O)NN)c(F)c2F)cs1 [Production Example 6, 4-{2-[2-(acetylamino)-1,3-thiazol-4-yl]ethyl}-2,3-difluorobenzyl hydrazinecarboxylate hydrochloride]",,1.3,0.6
CC(=O)Nc1nc(CCc2csc(CCCNC(=O)NN)c2)cs1 (as salt: hydrochloride),153 to 156,,
"CC(=O)Nc1nc(CCc2ccc(CSC(=O)NN)s2)cs1 [Production Example 36, S-[(5-{2-[2-(acetylamino)-1,3-thiazol-4-yl]ethyl}thiophen-2-yl)methyl]hydrazinecarbothioate hydrochloride]",,2.3,0.6
